Where a SMILES comes first, the peptide text is derived from it.
Legend:
Nup100(1-610) = type: binding, S. cerevisiae; conditions: AF488-labeled
Experimental: (§1) The expression of GST- Nsp1(497-609) in BL21(DE3) cells grown in LB media was induced at OD600nm = 0.4–0.6, followed by incubation at 37°C for 3–5 hr. The GST-tagged S. cerevisiae pGEX-Nup100(1-307), Nup100(1-610), Nup116(348-458) and Nup116(348-458)F > A were expressed in T7 Shuffle cells (NEB) that were grown in Dynamite media ([Taylor et al., 2017]) until OD600nm = 0.9 before induction with IPTG at 37°C for 3 hr. All the GST-tagged Nup fragments were purified using glutathione-sepharose affinity chromatography, as described for the GST-GFP-NLS above, and dialyzed into PBS before storage.
(§2) The bead halo assay was carried out as described with minor modifications ([Patel and Rexach, 2008]), using […] polystyrene beads coated with neutravidin (for biotinylated proteins) or glutathione (for GST-fusion proteins) (Spherotech, Lake Forest, IL). Beads were coated overnight at 4°C at saturating concentrations per manufacturers’ instructions and rinsed 2x in binding buffer (20 mM HEPES [pH 7.4], 150 mM KOAc, 2 mM Mg(OAc)2, 1 mM DTT, 0.1% Tween-20). Immediately prior to the assay, fluorescent bait proteins and beads were combined with 4x assay buffer (40 mM EDTA, 40 mg/ml BSA, 500 mM NaCl, and 0.2% Tween) to a total of 40 µL per well, in optical glass-bottom 96-well plates (Cellvis, Mountain View, CA). Reactions were allowed to equilibrate at room temperature for a minimum of 30 min prior to imaging at 100x on an LSM800 confocal microscope (Zeiss, Oberkochen, Germany). Intensity profiles comparing the maximum rim intensity to the background were plotted in ImageJ (NIH) by an investigator blinded to experimental conditions.

Nup100(1-307) = type: binding, S. cerevisiae; conditions: AF488-labeled
Experimental: as §1, §2

importin β = experiment: Bead halo assay, biotinylated importin β on neutravidin beads; type: binding, human; conditions: AF488-labeled; 1 mg/ml neuronal lysate added
Experimental: To prepare biotinylated WT importin β-Avitag (pKW1982, pK1099), BL21DE3 cells (New England Biolabs, Ipswich, MA) were co-transfected with the respective plasmids together with pAC-biotin ligase (Avidity), followed by plating and growth in LB media containing ampicillin and chloramphenicol. After the 37°C cultures reached OD600nm + 0.4–0.6, the cultures were cooled to room temperature, supplemented with 100 µM D-biotin, and the expression was induced with 0.3 mM IPTG at room temperature for 8–11 hr (pKW762). Proteins were purified on Ni-NTA resin as described for the non-biotinylated importin β fragments.
as §2, with “Reactions were allowed to equilibrate at room temperature for a minimum of 30 min prior to imaging at 100x on an LSM800 confocal microscope (Zeiss, Oberkochen, Germany). Intensity profiles comparing the maximum rim intensity to the background were plotted in ImageJ (NIH) by an investigator blinded to experimental conditions.” left out

N=C(N)NCCC[C@H](NC(=O)[C@@H]1CCCN1C(=O)[C@H](CCCNC(=N)N)NC(=O)[C@@H]1CCCN1C(=O)[C@H](CCCNC(=N)N)NC(=O)[C@@H]1CCCN1C(=O)[C@H](CCCNC(=N)N)NC(=O)[C@@H]1CCCN1C(=O)[C@H](CCCNC(=N)N)NC(=O)[C@@H]1CCCN1C(=O)[C@H](CCCNC(=N)N)NC(=O)[C@@H]1CCCN1C(=O)[C@H](CCCNC(=N)N)NC(=O)[C@@H]1CCCN1C(=O)[C@H](CCCNC(=N)N)NC(=O)[C@@H]1CCCN1C(=O)[C@H](CCCNC(=N)N)NC(=O)[C@@H]1CCCN1C(=O)[C@H](CCCNC(=N)N)NC(=O)[C@@H]1CCCN1)C(=O)O [PR10] (H-PRPRPRPRPRPRPRPRPRPR-OH; N-terminus and C-terminus assumed)
Binding to Nup100 GLFG-domain (halo intensity) (Nup100(1-610); binding buffer): modest selective binding | FG-binding with added unlabeled importin β (Nup100(1-610); + unlabeled importin β): FG-binding could be augmented | Binding to Nup100 GLFG-domain (halo intensity) (Nup100(1-307); binding buffer): modest selective binding | FG-binding with added unlabeled importin β (Nup100(1-307); + unlabeled importin β): FG-binding could be augmented | Binding to importin β-coated beads (importin β): the intensity of the importin β halo persisted

From article PMC7051184, “C9orf72 arginine-rich dipeptide repeat proteins disrupt karyopherin-mediated nuclear import” (eLife, 2020)
